Reference: US7572606B1 (Nereus Pharmaceuticals, Inc., priority 2005, dated 2009)
Where “and” joins values, the source holds several entries; their conditions need not be identical. Equal entries are not always repeated. Where two headings read alike, the source gives them in different places.

What was measured:
B16-F10 = assay: Cell growth inhibition, resazurin, 48 h; type: cell-based, mouse; conditions: Mus musculus, B16-F10, 48 h, B16-F10, 48 h drug exposure; read-out: EC50
Experimental: (§1) RPMI 8226 (CCL-155), HT-29 (HTB-38), and B16-F10 (CRL-6475) cells were purchased from ATCC. RPMI 8226 cells were maintained in RPMI 1640 media supplemented with 10% (v/v) FBS, 2 mM L-glutamine, 1 mM sodium pyruvate and Penicillin/Streptomycin at 100 IU/ml and 100 μg/ml, respectively. HT-29 cells were maintained in McCoys 5A supplemented with 10% (v/v) FBS, 2 mM L-glutamine, 1 mM sodium pyruvate, 1% (v/v) non-essential amino acids, 10 mM HEPES and Penicillin/Streptomycin at 100 IU/ml and 100 μg/ml, respectively. B16-F10 cells were maintained in DMEM supplemented with 10% (v/v) FBS, 2 mM L-glutamine, 10 mM HEPES and Penicillin/Streptomycin at 100 IU/ml and 100 μg/ml, respectively.
(§2) RPMI 8226 cells were seeded at 2×10^4 cells/well in 90 μl RPMI media containing 10% (v/v) FBS or 1% (v/v) FBS into 96 well black-walled, clear-bottom tissue culture plates. […] Formulae II-16, II-17 and Formula II-18 were serially diluted in media containing 1% or 10% FBS and added in triplicate to the test wells. […] The final concentration of Formula II-18 ranged from 2 μM to 630 pM.

HT-29 = assay: Cell growth inhibition, resazurin, 48 h; type: cell-based, human; conditions: Homo sapiens; HT-29, 48 h drug exposure; read-out: EC50
Experimental: as §1, §2

RPMI 8226 = assay: Cell growth inhibition, resazurin, 48 h; conditions: RPMI 8226, 48 h drug exposure
Experimental: as §1, §2

U266 = assay: Cell growth inhibition, resazurin, 48 h; type: cell-based, human; conditions: U266, 48 h drug exposure, read-out: EC50
MES-SA/Dx5 = assay: Cell growth inhibition, resazurin, 48 h; conditions: MES-SA/Dx5, 48 h drug exposure
Experimental: (§3) Concentrations ranging from 6.32 μM to 2 nM were tested for II-2 and II-4.

HL-60 = assay: Cell growth inhibition, resazurin, 48 h; conditions: Homo sapiens, HL-60, 48 h, HL-60, 48 h drug exposure
Experimental: (§4) The DNA binding agent Mitoxantrone was included as a control, as HL-60/MX2 cells are reported to be resistant to this chemotherapeutic agent (Harker W. G. et al. 1989).
as §3

[1] = biological target: T1, trypsin-like activity of rabbit muscle 20S proteasome (Oryctolagus cuniculus, UniProt G1SWK8); assay: In vitro inhibition of 20S proteasome, Boc-LRR-AMC; type: biochemical
T1 construct: EC50 Trypsin-like; other: purified rabbit 20S proteasome, Boc-LRR-AMC; other: under the conditions tested
T1 sequence (G1SWK8 1-271): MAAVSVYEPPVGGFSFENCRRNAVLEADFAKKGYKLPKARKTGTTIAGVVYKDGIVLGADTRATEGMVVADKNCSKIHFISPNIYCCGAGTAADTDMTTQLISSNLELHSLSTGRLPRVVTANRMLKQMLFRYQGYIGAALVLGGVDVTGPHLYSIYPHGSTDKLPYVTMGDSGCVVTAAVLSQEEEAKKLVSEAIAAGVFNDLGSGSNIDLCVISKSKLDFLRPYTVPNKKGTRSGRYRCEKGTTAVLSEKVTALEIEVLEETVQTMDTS

[2] = system: NF-κB-mediated luciferase activity in HEK293 NF-κB/Luc cells; assay: NF-κB-mediated luciferase reporter gene assay; type: cell-based, human; conditions: for luciferase activity upon TNF-α stimulation: pretreatment of NF-κB/Luc 293 cells; for EC50: 6 h TNF-α stimulation, read-out: EC50
Experimental: The HEK293 NF-κB/luciferase reporter cell line is a derivative of the human embryonic kidney cell line (ATCC; CRL-1573) and carries a luciferase reporter gene under the regulation of 5×NF-κB binding sites. […] When performing the luciferase assay, the DMEM basal medium was replaced with phenol-red free DMEM basal medium and the G418 was omitted.
For NF-κB-mediated luciferase assays, HEK293 NF-κB/luciferase cells were seeded at 1.5×10^4 cells/well in 90 μl phenol-red free DMEM complete medium into Corning 3917 white opaque-bottom tissue culture plates. For Formulae II-2, II-4, II-5A and II-18, a 400 μM starting dilution was made in 100% DMSO and this dilution was used to generate an 8-point half log dilution series. […] For formula II-20, a 2.5 mM or 8 mM starting dilution was made in 100% DMSO and the final test concentrations ranged from 6.3 μM to 2.0 nM or 20 μM to 6.3 nM respectively. The plates were returned to the incubator for 1 hour. After 1 hr pretreatment, 10 μl of a 50 ng/ml TNF-α solution, prepared in the phenol-red free DMEM medium was added, and the plates were incubated for an additional 6 hours.
At the end of the TNF-α stimulation, 100 μl of Steady Lite HTS luciferase reagent (Packard Bioscience) was added to each well and the plates were left undisturbed for 10 min at room temperature before measuring the luciferase activity. The relative luciferase units (RLU) were measured by using a Fusion microplate fluorometer (Packard Bioscience).
NF-κB inducible luciferase activity was measured at 6 hours.

[3] = biological target: caspase-like (PGPH) activity of rabbit muscle 20S proteasome (Oryctolagus cuniculus, UniProt A0A5F9DQW2); assay: In vitro inhibition of 20S proteasome, Z-LLE-AMC
caspase-like (PGPH) activity of rabbit muscle 20S proteasome, sequence (A0A5F9DQW2 1-212): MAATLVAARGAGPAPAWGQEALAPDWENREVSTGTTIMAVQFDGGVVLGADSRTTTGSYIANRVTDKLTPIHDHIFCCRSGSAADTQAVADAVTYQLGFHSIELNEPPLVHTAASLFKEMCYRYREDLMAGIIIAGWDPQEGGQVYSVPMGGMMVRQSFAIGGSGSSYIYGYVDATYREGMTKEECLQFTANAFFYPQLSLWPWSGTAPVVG

OVCAR-3 = assay: Cell growth inhibition, resazurin, 48 h; type: cell-based, human; conditions: Homo sapiens; OVCAR-3, 48 h drug exposure; read-out: EC50
HL-60/MX2 = assay: Cell growth inhibition, resazurin, 48 h; conditions: Homo sapiens, HL60/MX2, 48 h, HL-60/MX2, 48 h drug exposure
Experimental: as §4, §3

SMILES	EC50 (B16-F10)	EC50 (HT-29)	EC50 (RPMI 8226; Homo sapiens, RPMI-8226, 48 h)	EC50 (U266)	EC50 (MES-SA/Dx5; Homo sapiens, MES-SA/Dx5, 48 h)	EC50 (MES-SA/Dx5)	EC50 (HL-60)	inhibition of the trypsin-like activity of the 20S proteasome ([1]; under the conditions tested)	luciferase activity upon TNF-α stimulation [2]	EC50 ([3]; read-out: EC50 Caspase-like, purified rabbit 20S proteasome, Z-LLE-AMC)	EC50 (U266; Homo sapiens, U-266, 48 h)	inhibition of the trypsin-like activity of the 20S proteasome [1]	EC50 ([3]; read-out: EC50 Caspase-like)	EC50 (OVCAR-3)	EC50 (RPMI 8226)	EC50 (HL-60/MX2)	EC50 ([2]; 1 h pretreatment)	EC50 ([2]; Homo sapiens, HEK293, 1 h pretreatment)	EC50 ([3]; read-out: EC50 Caspase-like (PGPH))
C[C@@]12OC(=O)[C@]1([C@@H](O)C1CCCCC1)NC(=O)[C@@H]2CCCl [Formula II-2]	194 nM	129 ± 21 nM	49 nM	39 nM	220 nM	138 nM	237 nM	able to inhibit the trypsin-like activity	dose-dependent decrease of luciferase activity	1300 nM and 1700 nM	–	–	–	–	–	–	–	–	–
CC[C@H]1C(=O)N[C@@]2([C@@H](O)C3CCCCC3)C(=O)O[C@@]12C [Formula II-3]	–	> 20000 nM	> 20000 nM	–	> 20000 nM	–	–	–	–	–	> 20000 nM	able to inhibit the trypsin-like activity	> 20000 nM	–	–	–	–	–	–
C[C@@]12OC(=O)[C@]1([C@@H](O)C1CCCCC1)NC(=O)[C@@H]2CCBr [Formula II-4]	163 nM	–	57 nM	39 nM	178 nM	93 nM	143 nM	–	dose-dependent decrease of luciferase activity	–	34 nM	able to inhibit the trypsin-like activity	–	> 6320 nM	51 nM	97 nM	88 nM	67 nM	850 nM and 637 nM
